Results from publication PMC7369637, “Inhibition of Resistance-Refractory P. falciparum Kinase PKG Delivers Prophylactic, Blood Stage, and Transmission-Blocking Antiplasmodial Activity” (Cell Chemical Biology, 2020).
Like-named read-outs stand apart in the source and are kept apart here.

Assays:
Pf NF54 male gametes = assay: Dual gamete formation assay, male gamete exflagellation; format: cell-based; conditions: Plasmodium falciparum
Protocol: Pf NF54 gametocytes were generated as reported elsewhere ([Delves et al., 2016]). Briefly, static cultures of unsynchronized asexual parasites were continuously maintained as above. Parasites were cultured at 1% ring-stage parasitemias and 4% (v/v) hematocrit prior to the induction of gametocytes. To prepare gametocytes, 75% of the media was replaced daily for 14 subsequent days without adding fresh RBCs. During this process the temperature was kept strictly constant, as the rate of exflagellation is highly temperature-dependent. Between days 1 and 4 after culture induction, the asexual parasitemias increased rapidly to a peak. By day 7, as the asexual population waned, early-stage gametocytes became observable. By day 8, gametocyte maturation had progressed, and by day 14 morphologically distinguishable, mature stage V male and female gametocytes were present. […] Control reactions contained DMSO or 20 μM methylene blue (as negative and positive controls, respectively). […] After imaging, the plate was incubated at 18°C for a further 24 h to allow female gametes to maximally express Pfs25, followed by fluorescence microscopy imaging using a 10× objective. Both time lapse images of exflagellation and fluorescence images of female gametes were automatically quantified using custom scripts in ICY BioImage Analysis ([Delves et al., 2016]).

[1] = system: recombinant TKL3 kinase domain; assay: Radioactive in vitro kinase assay with recombinant TKL3 kinase domain; format: biochemical, Plasmodium falciparum; conditions: 20 μM compound
Protocol: Recombinant proteins were expressed in E. coli as previously described ([Abdi et al., 2010]). […] The cultures were then cooled to 20°C followed by induction of protein expression with 0.5 mM IPTG and further incubation at 20°C, 200 rpm for 16 h. Cultures were harvested by centrifugation at 4000g, 4°C for 10 min. Bacterial pellets were washed once in 1× PBS and were stored at −80°C. Cell pellets were resuspended in ice-cold Lysis Buffer (50 mM sodium phosphate, pH 8.0, 400 mM NaCl, 5 % (w/v) glycerol, 0.1 % (v/v) Triton X-100, 20 mM imidazole, 2 mM β-mercaptoethanol, 1× Roche protease inhibitor cocktail EDTA-free, 1 mg/ml lysozyme). Cells were disrupted by sonication. Protein was bound on a HisTrap HP column and eluted with a linear gradient of increasing imidazole concentrations. The peak fractions as determined by A280 trace were pooled together and further purified by size exclusion chromatography on a S200 gel filtration column equilibrated in 25 mM Tris pH 7.5, 100 mM NaCl, 5 % (w/v) glycerol, 1 mM DTT. Protein was pooled and concentrated. Final concentration was determined using a Bradford assay with a BSA protein standard.
Kinase assays containing 3 μg of recombinant kinase (WT or mutant) were performed in kinase assay buffer (25 mM Hepes, pH 7.5, 2 mM MnCl2, 10 mM β-glycerophosphate, 10 mM NaF, 25 μM ATP (containing 5 μCi [γ-^32P]-ATP-3000 mCi/mmol (PerkinElmer)), 5 μg substrate myelin basic protein (MBP) and ± 20 μM inhibitor) in a final reaction volume of 20 μl and incubated at 30°C for 30 min. Reactions were stopped by the addition of 5× Laemmli sample buffer and heated to 98°C for 5 min. Proteins were resolved by 4-12 % SDS-PAGE and stained in Coomassie Brilliant Blue. Kinase activity was detected by phosphorimaging. Imaging was performed on a Typhoon 5 Biomolecular imager (GE Healthcare Life Sciences).

In the case of CC(C)(CN)c1nc(-c2ccc(Cl)c(O)c2)c(-c2ccncc2)[nH]1 [MMV030084], the IC50 (Pf NF54 male gametes; carry-over: gametogenesis induced in the presence of compound, read-out: IC50, male gamete exflagellation) is reported as 141 nM, the IC50 (Pf NF54 male gametes; compound washed out before gamete formation, read-out: IC50, male gamete formation, wash-out) is reported as > 10000 nM and the “Reduction in TKL3 kinase activity” value [1] is reported as “no reduction”.
